Source: the supplement of paper PMC10307832

Assays:
Assay in all cases: relative viability (nuclei count vs DMSO), 5 days (fraction); higher = more cells survive
[1] = compound: C[C@]1(c2nc3c(C(N)=O)cccc3[nH]2)CCCN1 [Veliparib] + Nc1nc2[nH]cc(CCc3ccc(C(=O)N[C@@H](CCC(=O)O)C(=O)O)cc3)c2c(=O)[nH]1 [Pemetrexed] (partner 0.2 µM)
In short: (§1)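 Cells from lung cancer lines were seeded into 1536-well plates and, one day later, dosed by pin tool. Treatments were either a single drug or a fixed dose of an anchor drug with five library-drug doses (not always all listed) in √10 steps. After 5 days, nuclei were stained in a one-step fixation (final 0.05% Triton X-100, 1% formaldehyde, 1 ug/ml Hoechst) and counted on 4× images, and relative viability is the treated-to-vehicle nuclei ratio, as the median of duplicate plates.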

[2] = compound: COC1=CC=C(C=C1)CN2C=CC3=C2C=C(C=C3)C(=O)NO + CC(=O)c1c(C)c2cnc(Nc3ccc(N4CCNCC4)cn3)nc2n(C2CCCC2)c1=O [Palbociclib] (partner 0.5 µM)
In short: as §1

[3] = compound: COC1=CC=C(C=C1)CN2C=CC3=C2C=C(C=C3)C(=O)NO + Cc1nc(NC(=O)N2CCC[C@H]2C(N)=O)sc1-c1ccnc(C(C)(C)C(F)(F)F)c1 [Alpelisib] (partner 2 µM)
In short: as §1

[4] = compound: C[C@]1(c2nc3c(C(N)=O)cccc3[nH]2)CCCN1 [Veliparib] + CS(=O)(=O)N1CCN(Cc2cc3nc(-c4cccc5[nH]ncc45)nc(N4CCOCC4)c3s2)CC1 [Pictilisib] (partner 1 µM)
In short: as §1

| Cell Line | relative viability ([1]; first compound 0.02 µM) | relative viability ([1]; first compound 0.2 µM) | relative viability ([1]; first compound 0.6325 µM) | relative viability ([1]; first compound 2 µM) | relative viability ([2]; first compound 0.08 µM) | relative viability ([2]; first compound 0.8 µM) | relative viability ([2]; first compound 2.53 µM) | relative viability ([2]; first compound 8 µM) | relative viability ([3]; first compound 0.08 µM) | relative viability ([3]; first compound 0.253 µM) | relative viability ([3]; first compound 0.8 µM) | relative viability ([3]; first compound 2.53 µM) | relative viability ([3]; first compound 8 µM) | relative viability ([4]; first compound 0.02 µM) | relative viability ([4]; first compound 0.06325 µM) | relative viability ([4]; first compound 0.2 µM) | relative viability ([4]; first compound 0.6325 µM) | relative viability ([4]; first compound 2 µM) | relative viability ([1]; first compound 0.06325 µM) | relative viability ([2]; first compound 0.253 µM) |
| --- | --- | --- | --- | --- | --- | --- | --- | --- | --- | --- | --- | --- | --- | --- | --- | --- | --- | --- | --- | --- |
| PC-3 [JPC-3] | 1.01 | 1.33 | 1.28 | 1.08 | 0.562 | 0.559 | 0.55 | 0.535 | 1.02 | 1.02 | 1.01 | 1.13 | 1.02 | 0.774 | 0.689 | 0.774 | 0.69 | 0.758 | – | – |
| NCI-H23 | 0.615 | 0.623 | 0.747 | 0.622 | 0.393 | 0.556 | 0.496 | 0.461 | 0.535 | 0.834 | 0.643 | 0.737 | 0.756 | 0.598 | 0.477 | 0.451 | 0.449 | 0.563 | 0.593 | 0.611 |
| SK-MES-1 | 1 | 0.946 | 0.901 | 0.995 | 0.357 | 0.299 | 0.287 | 0.31 | 0.924 | 0.946 | 0.861 | 0.76 | 0.823 | 0.373 | 0.295 | 0.402 | 0.336 | 0.347 | 0.901 | 0.324 |
| NCI-H1651 | 0.55 | 0.578 | 0.537 | 0.563 | 0.476 | 0.525 | 0.51 | 0.531 | 0.993 | 1.06 | 0.964 | 0.789 | 0.723 | 0.572 | 0.601 | 0.559 | 0.457 | 0.558 | 0.65 | 0.519 |
| SK-LU-1 | 0.963 | 1.15 | 0.92 | 0.981 | 0.385 | 0.422 | 0.434 | 0.341 | 1.01 | 1.04 | 1.11 | 1.11 | 0.81 | 0.624 | 0.573 | 0.483 | 0.585 | 0.536 | 1.03 | 0.374 |
| NCI-H727 | – | – | – | – | 0.61 | 0.698 | 0.644 | 0.601 | 0.525 | 0.515 | 0.626 | 0.654 | 0.562 | 0.195 | 0.33 | 0.433 | 0.296 | 0.431 | – | 0.631 |
| NCI-H3122 | 0.194 | 0.19 | 0.211 | 0.2 | 0.196 | 0.204 | 0.167 | 0.194 | 0.613 | 0.88 | 0.828 | 0.87 | 0.701 | 0.576 | 0.599 | 0.673 | 0.552 | 0.611 | 0.203 | 0.173 |
| HOP-62 | 0.311 | 0.365 | 0.329 | 0.373 | 0.321 | 0.431 | 0.413 | 0.493 | 0.71 | 0.996 | 0.985 | 0.932 | 0.947 | 0.705 | 0.79 | 0.818 | 0.548 | 0.738 | 0.376 | 0.442 |
| LC-2-ad | 0.277 | 0.273 | 0.263 | 0.287 | 0.446 | 0.506 | 0.484 | 0.47 | 0.857 | 0.861 | 0.833 | 0.973 | 0.877 | – | 0.431 | 0.428 | 0.464 | 0.497 | 0.277 | 0.532 |
| EKVX | – | 0.421 | 0.461 | 0.444 | – | 0.387 | 0.384 | 0.351 | 0.749 | 0.856 | 0.878 | 0.91 | 0.897 | 0.427 | 0.464 | 0.465 | 0.361 | 0.397 | 0.391 | 0.408 |
| LCLC-103H | 0.447 | 0.454 | 0.422 | 0.478 | 0.435 | 0.481 | 0.466 | 0.515 | 0.998 | 0.992 | 0.954 | 1.03 | 0.855 | 0.685 | 0.615 | 0.577 | 0.666 | 0.651 | 0.49 | 0.439 |
| NCI-H1703 | – | – | – | – | – | – | – | – | 0.337 | 0.324 | 0.328 | 0.344 | 0.381 | 0.267 | 0.267 | 0.23 | 0.254 | 0.216 | – | – |
| EBC-1 | – | – | – | – | – | – | – | – | 0.817 | 0.842 | 0.848 | 0.815 | 0.737 | 0.439 | 0.38 | 0.477 | 0.318 | 0.42 | – | – |
| NCI-H1650 | 0.388 | 0.373 | 0.331 | 0.362 | 0.355 | 0.354 | 0.426 | 0.351 | – | – | – | – | – | – | 0.507 | 0.61 | 0.519 | 0.566 | 0.332 | 0.341 |
| NCI-H522 | 0.981 | 0.761 | 1.16 | 0.785 | – | 0.972 | 0.999 | 0.955 | – | – | – | – | – | – | – | – | – | – | 0.814 | 0.944 |
| A549 | – | – | – | – | – | – | – | – | 0.643 | 0.812 | 0.743 | 0.749 | 0.58 | 0.526 | 0.504 | 0.476 | 0.455 | 0.521 | – | – |
| NCI-H1563 | 0.694 | 0.742 | 0.728 | 0.685 | – | – | – | – | 0.798 | 0.947 | 0.946 | 0.964 | 0.839 | 0.642 | 0.635 | 0.625 | 0.675 | 0.595 | 0.766 | – |
| NCI-H2342 | 0.675 | 0.744 | 0.784 | 0.771 | 0.467 | 0.52 | 0.538 | 0.559 | – | – | – | – | – | – | – | – | – | – | 0.721 | 0.586 |
| SW 900 | – | 0.493 | 0.467 | 0.511 | 0.491 | 0.565 | 0.525 | 0.51 | – | – | – | – | – | – | – | – | – | – | 0.492 | 0.564 |
| NCI-H1299 | – | – | – | – | – | – | – | – | 1.09 | 1.05 | 1.05 | 1.08 | 1.04 | 0.985 | 0.703 | 0.779 | 0.751 | 0.765 | – | – |
| Calu-6 | – | – | – | – | – | – | – | – | 0.859 | 0.881 | 0.897 | 1.02 | 0.815 | 1.02 | 0.887 | 0.892 | 0.816 | 0.85 | – | – |
